From patent publication US20250064061A1, “METHOD FOR CONTROLLING NOXIOUS ARTHROPODS” (SUMITOMO CHEMICAL COMPANY, LIMITED, priority 2021, published 2025)

Key:
[1] = system: strain of German cockroaches that is susceptible to insecticides; experiment: Topical application test on male adult German cockroach, insecticide-susceptible strain; format: in vivo; conditions: 1 μL acetone solution applied to ventral surface of thorax of male adult; mortality after 4 days; Probit method
Protocol: (§1) An acetone solution comprising a prescribed concentration of each of permethrin, deltamethrin, fipronil, indoxacarb, fluxametamide, broflanilide, nicofluprole, cyproflanilide, or isocycloseram was prepared, and 1 μL of the acetone solution was applied to a ventral surface of thorax of a male adult of German cockroach. Two strains of German cockroaches, i.e., the strain of German cockroaches that is susceptible to insecticides and the strain of German cockroaches that is resistant to multiple insecticides, were used. The strain of German cockroaches that is resistant to multiple insecticides is highly resistant to pyrethroid compounds, phenylpyrazole compounds, and oxadiazine compounds. As the resistance mechanism, the strain has the L993F mutation of voltage-dependent sodium channel resulting in pyrethroid resistance, the A302S mutation of GABAergic chloride ion channel resulting in dieldrin resistance, and enhanced metabolic detoxification activities. The application concentrations were three or more concentrations resulting in 0 to 100% of mortality of insects (comprising one or more concentrations resulting in less than 50% mortality of insects, and one or more concentrations resulting in more than 50% mortality of insects), and the number of test insects per concentration was ten in duplicate. After 4 days, the number of dead German cockroach(es) was investigated, and LD50 value was calculated by the Probit method. The mortalities of insects of 0% and 100% were corrected by the method of Miller and Tainter represented by the following formula (1), and corrected mortalities of insects were used when LD50 values were calculated. The resistance ratio was calculated according to the following formula (2) by using the obtained LD50 values. In this test, a dead insect refers to an insect in which the action was completely stopped.

[2] = system: strain of German cockroaches that is resistant to multiple insecticides; experiment: Topical application test on male adult German cockroach, multiple-insecticide-resistant strain; format: in vivo; conditions: for LD50 Resistant: 1 μL acetone solution applied to ventral surface of thorax of male adult, mortality after 4 days, Probit method, strain with L993F sodium channel and A302S GABAergic chloride channel mutations and enhanced metabolic detoxification; for Resistance ratio: calculated by formula (2) from the LD50 values of the resistant and susceptible strains; for Control of harmful arthropods showing high resistance to permethrin, deltamethrin, fipronil, indoxacarb and fluxametamide: conclusion drawn from Table 1
Protocol: as §1

Structure (SMILES)	LD50 Susceptible [1] [μg/insect]	LD50 Resistant [2] [μg/insect]	Resistance ratio [2]	Control of harmful arthropods showing high resistance to permethrin, deltamethrin, fipronil, indoxacarb and fluxametamide [2]
CN(C(=O)c1ccccc1)c1cccc(C(=O)Nc2c(Br)cc(C(F)(C(F)(F)F)C(F)(F)F)cc2C(F)(F)F)c1F [Broflanilide, broflanilide]	0.0093	0.021	2.3	can effectively control
O=C(Nc1c(Br)cc(C(F)(C(F)(F)F)C(F)(F)F)cc1C(F)(F)F)c1cccc(N(CC2CC2)C(=O)c2ccc(F)cc2)c1F [Cyproflanilide, cyproflanilide]	0.028	0.035	1.2	can effectively control
CC1(C)[C@H](C(=O)O[C@H](C#N)c2cccc(Oc3ccccc3)c2)[C@@H]1C=C(Br)Br [Deltamethrin, deltamethrin]	0.016	0.68	43	–
N#Cc1nn(-c2c(Cl)cc(C(F)(F)F)cc2Cl)c(N)c1[S+]([O-])C(F)(F)F (stereo not shown) [Fipronil, fipronil]	0.0034	0.14	41	–
CON=CNC(=O)c1ccc(C2=NOC(c3cc(Cl)cc(Cl)c3)(C(F)(F)F)C2)cc1C (stereo not shown) [Fluxametamide, fluxametamide]	0.059	2.7	46	–
COC(=O)N(C(=O)N1CO[C@@]2(C(=O)OC)Cc3cc(Cl)ccc3C2=N1)c1ccc(OC(F)(F)F)cc1 [Indoxacarb, indoxacarb]	0.25	>50	>200	–
CCN1OCC(NC(=O)c2ccc(C3=NOC(c4cc(Cl)c(F)c(Cl)c4)(C(F)(F)F)C3)cc2C)C1=O (stereo not shown) [Isocycloseram, isocycloseram]	0.059	0.10	1.7	can effectively control
CN(C(=O)c1cc(-c2cnn(-c3c(Cl)cc(C(F)(C(F)(F)F)C(F)(F)F)cc3Cl)c2)cnc1Cl)C1CC1 [Nicofluprole, nicofluprole]	0.0027	0.0065	2.4	can effectively control
CC1(C)C(C=C(Cl)Cl)C1C(=O)OCc1cccc(Oc2ccccc2)c1 (stereo not shown) [Permethrin, permethrin]	0.28	>50	>180	–
